Test results taken from patent publication US20230233569A1 (Revolution Medicines, Inc., priority 2020, published 2023).

How the values were obtained:
Capan-1 (K-Ras G12V) = test: CellTiter-Glo cell viability assay, 5-day treatment; format: cell-based; conditions: Homo sapiens, CAPAN-1, 120 h, 5-day treatment; read-out: Capan-1 Cell Viability assay data (K-Ras G12V, IC50)
Outline: (§1)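 Viability is read as luminescence on day 5 after direct compound addition to plated cells, following about 30 minutes' room-temperature equilibration. Each signal is scaled to mean DMSO as 100%.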

NCI-H358 (K-Ras G12C) = test: as above; format: cell-based; conditions: Homo sapiens, NCI-H358, 120 h, 5-day treatment; read-out: H358 Cell Viability assay data (K-Ras G12C, IC50)
Outline: as §1

NRAS Q61R = NRAS Q61R (Homo sapiens, UniProt P01111+P62937, Q61R); test: Disruption of BRAF RBD interaction with Ras (FRET / MOA assay, with Cyclophilin A); format: biochemical; conditions: NRAS Q61R; read-out: NRAS Q61R FRET data IC50
NRAS Q61R, sequence (P01111 whole entry Q61R): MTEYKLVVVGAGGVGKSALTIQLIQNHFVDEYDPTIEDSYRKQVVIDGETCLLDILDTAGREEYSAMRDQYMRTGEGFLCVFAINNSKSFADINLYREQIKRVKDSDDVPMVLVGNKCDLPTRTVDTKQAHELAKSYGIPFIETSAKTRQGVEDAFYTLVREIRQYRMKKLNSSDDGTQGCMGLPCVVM
NRAS Q61R, sequence (P62937 whole entry): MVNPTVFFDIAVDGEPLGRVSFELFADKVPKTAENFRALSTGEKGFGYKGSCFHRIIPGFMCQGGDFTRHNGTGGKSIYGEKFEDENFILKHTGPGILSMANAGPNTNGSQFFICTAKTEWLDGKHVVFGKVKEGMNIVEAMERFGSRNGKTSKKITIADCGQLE
Outline: (§2)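 IC50 reflects compound-driven Ras:Cyclophilin A ternary complex displacing BRAF RBD, read as lowered TR-FRET ratio relative to DMSO after Eu anti-His (10 nM) and APC anti-GST (50 nM) detection for 1.5 h. Prior incubation 3 h, 25° C, with 12.5 nM GMPPNP-loaded Ras, 50 nM BRAF RBD, 25 μM Cyclophilin A; top compound 30 μM.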

NRAS WT = NRAS WT (Homo sapiens, UniProt P01111+P62937); test: as above; format: biochemical; conditions: NRAS WT; read-out: NRAS WT FRET data IC50
NRAS WT, sequence (P01111 whole entry): as the sequence (P01111 whole entry Q61R) above, with R61Q counted along it
NRAS WT, sequence (P62937 whole entry): as the sequence (P62937 whole entry) above
Outline: as §2

KRAS Q61H = KRAS Q61H (Homo sapiens, UniProt P01116+P62937, Q61H); test: as above; format: biochemical; conditions: KRAS Q61H; read-out: KRAS Q61H FRET data IC50
KRAS Q61H, sequence (P01116 1-169 isoform P01116-2 Q61H limits assumed): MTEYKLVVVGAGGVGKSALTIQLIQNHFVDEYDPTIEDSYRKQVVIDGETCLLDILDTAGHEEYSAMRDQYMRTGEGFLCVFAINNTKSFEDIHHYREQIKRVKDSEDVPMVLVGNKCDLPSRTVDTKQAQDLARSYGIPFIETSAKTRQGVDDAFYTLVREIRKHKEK
KRAS Q61H, sequence (P62937 whole entry): as the sequence (P62937 whole entry) above
Outline: as §2

NRAS Q61K = NRAS Q61K (Homo sapiens, UniProt P01111+P62937, Q61K); test: as above; format: biochemical; conditions: NRAS Q61K; read-out: NRAS Q61K FRET data IC50
NRAS Q61K, sequence (P01111 whole entry Q61K): as the sequence (P01111 whole entry Q61R) above, with R61K counted along it
NRAS Q61K, sequence (P62937 whole entry): as the sequence (P62937 whole entry) above
Outline: as §2

KRAS G12C = KRAS G12C (Homo sapiens, UniProt P01116+P62937, G12C); test: as above; format: biochemical; conditions: read-out: KRAS G12C FRET data, IC50
KRAS G12C, sequence (P01116 1-169 isoform P01116-2 G12C): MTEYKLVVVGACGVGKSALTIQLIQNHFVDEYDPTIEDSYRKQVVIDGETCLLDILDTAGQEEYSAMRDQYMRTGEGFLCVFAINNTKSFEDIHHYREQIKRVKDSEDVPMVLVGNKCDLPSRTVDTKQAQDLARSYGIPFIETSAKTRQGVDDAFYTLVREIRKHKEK
KRAS G12C, sequence (P62937 whole entry): as the sequence (P62937 whole entry) above
Outline: (§3)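 First, compounds at a ten-point threefold dilution series (highest final concentration 30 μM) were incubated with nucleotide-loaded K-Ras, Cyclophilin A and BRAF RBD for 3 h at 25 °C. Next, detection antibodies were added for 1.5 h. Finally, IC50 was calculated from TR-FRET ratio decreases against DMSO controls.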

KRAS G12D = KRAS G12D (Homo sapiens, UniProt P01116+P62937, G12D); test: as above; format: biochemical; conditions: read-out: KRAS G12D FRET data, IC50
KRAS G12D, sequence (P01116 1-169 isoform P01116-2 G12D limits assumed): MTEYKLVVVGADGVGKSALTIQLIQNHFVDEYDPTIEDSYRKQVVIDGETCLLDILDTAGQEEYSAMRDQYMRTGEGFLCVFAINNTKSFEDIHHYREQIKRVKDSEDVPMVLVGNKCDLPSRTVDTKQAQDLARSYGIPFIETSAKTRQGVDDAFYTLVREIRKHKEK
KRAS G12D, sequence (P62937 whole entry): as the sequence (P62937 whole entry) above
Outline: as §3

NRAS G12C = NRAS G12C (Homo sapiens, UniProt P01111+P62937, G12C); test: as above; format: biochemical; conditions: NRAS G12C; read-out: NRAS G12C FRET data IC50
NRAS G12C, sequence (P01111 whole entry G12C): as the sequence (P01111 whole entry Q61R) above, with G12C, R61Q counted along it
NRAS G12C, sequence (P62937 whole entry): as the sequence (P62937 whole entry) above

KRAS G13D = KRAS G13D (Homo sapiens, UniProt P01116+P62937, G13D); test: as above; format: biochemical; conditions: KRAS G13D; read-out: KRAS G13D FRET data IC50
KRAS G13D, sequence (P01116 1-169 isoform P01116-2 G13D limits assumed): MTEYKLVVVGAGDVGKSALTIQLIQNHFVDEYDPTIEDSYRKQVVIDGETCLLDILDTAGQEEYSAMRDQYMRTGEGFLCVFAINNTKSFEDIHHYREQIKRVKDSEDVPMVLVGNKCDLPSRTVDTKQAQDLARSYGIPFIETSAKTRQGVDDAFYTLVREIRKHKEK
KRAS G13D, sequence (P62937 whole entry): as the sequence (P62937 whole entry) above
Outline: as §3

KRAS WT = KRAS WT (Homo sapiens, UniProt P01116+P62937); test: as above; format: biochemical; conditions: KRAS WT; read-out: KRAS WT FRET data IC50
KRAS WT, sequence (P01116 1-169 isoform P01116-2 limits assumed): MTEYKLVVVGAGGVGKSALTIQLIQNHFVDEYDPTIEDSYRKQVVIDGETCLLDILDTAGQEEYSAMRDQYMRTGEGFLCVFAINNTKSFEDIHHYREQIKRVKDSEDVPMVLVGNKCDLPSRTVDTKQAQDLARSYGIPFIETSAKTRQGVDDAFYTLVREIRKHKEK
KRAS WT, sequence (P62937 whole entry): as the sequence (P62937 whole entry) above
Outline: as §3

KRAS G13C = KRAS G13C (Homo sapiens, UniProt P01116+P62937, G13C); test: as above; format: biochemical; conditions: read-out: KRAS G13C FRET data, IC50
KRAS G13C, sequence (P01116 1-169 isoform P01116-2 G13C): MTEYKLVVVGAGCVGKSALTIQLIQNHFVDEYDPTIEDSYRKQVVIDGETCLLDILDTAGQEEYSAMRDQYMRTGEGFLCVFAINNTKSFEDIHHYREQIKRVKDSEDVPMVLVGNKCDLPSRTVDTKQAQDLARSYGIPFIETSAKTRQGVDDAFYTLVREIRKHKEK
KRAS G13C, sequence (P62937 whole entry): as the sequence (P62937 whole entry) above
Outline: as §3

KRAS G12V = KRAS G12V (Homo sapiens, UniProt P01116+P62937, G12V); test: as above; format: biochemical; conditions: KRAS G12V; read-out: KRAS G12V FRET data IC50
KRAS G12V, sequence (P01116 1-169 isoform P01116-2 G12V limits assumed): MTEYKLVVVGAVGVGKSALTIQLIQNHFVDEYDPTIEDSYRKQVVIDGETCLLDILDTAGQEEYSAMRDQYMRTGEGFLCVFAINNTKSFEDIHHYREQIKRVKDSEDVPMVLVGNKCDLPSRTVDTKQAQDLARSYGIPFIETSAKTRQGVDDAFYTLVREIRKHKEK
KRAS G12V, sequence (P62937 whole entry): as the sequence (P62937 whole entry) above
Outline: as §3

KRAS G12S = KRAS G12S (Homo sapiens, UniProt P01116+P62937, G12S); test: as above; format: biochemical; conditions: read-out: KRAS G12S FRET data, IC50
KRAS G12S, sequence (P01116 1-169 isoform P01116-2 G12S limits assumed): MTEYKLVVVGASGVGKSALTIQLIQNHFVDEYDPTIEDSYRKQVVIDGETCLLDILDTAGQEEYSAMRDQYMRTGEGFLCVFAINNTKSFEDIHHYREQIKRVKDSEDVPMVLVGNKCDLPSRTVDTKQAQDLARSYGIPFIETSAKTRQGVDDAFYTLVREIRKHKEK
KRAS G12S, sequence (P62937 whole entry): as the sequence (P62937 whole entry) above
Outline: as §3

SMILES | IC50 (NCI-H358 (K-Ras G12C)) [nM] | IC50 (NRAS Q61R) [nM] | IC50 (NRAS WT) [nM] | IC50 (KRAS Q61H) [nM] | IC50 (NRAS Q61K) [nM] | IC50 (KRAS G12C) [nM] | IC50 (KRAS G12D) [nM] | IC50 (NRAS G12C) [nM] | IC50 (KRAS G13D) [nM] | IC50 (KRAS WT) [nM] | IC50 (KRAS G13C) [nM] | IC50 (KRAS G12V) [nM] | IC50 (KRAS G12S) [nM] | IC50 (Capan-1 (K-Ras G12V)) [nM]
CCn1c(-c2cccnc2[C@H](C)OC)c2c3cc(ccc31)-c1cc(O)cc(c1)C[C@H](NC(=O)[C@H](C(C)C)N(C)C(=O)[C@H]1C[C@@H]1O)C(=O)N1CCC[C@H](N1)C(=O)OCC(C)(C)C2 (single isomer, unassigned) [Example A346] | 100 to 1000 | 100 to 1000 | 10 to 100 | 10 to 100 | 100 to 1000 | 10 to 100 | 100 to 1000 | 10 to 100 | 100 to 1000 | 10 to 100 | 10 to 100 | 100 to 1000 | 100 to 1000 | 100 to 1000
CCn1c(-c2cccnc2[C@H](C)OC)c2c3cc(ccc31)-c1csc(n1)C[C@H](NC(=O)[C@H](C1CCCC1)N(C)C(=O)N1CCN(C)CC1)C(=O)N1CCC[C@H](N1)C(=O)OCC(C)(C)C2 [Example A525] | 10 to 100 | 100 to 1000 | 100 to 1000 | 100 to 1000 | 100 to 1000 | 100 to 1000 | 1000 to 10000 | 100 to 1000 | 100 to 1000 | 100 to 1000 | 100 to 1000 | 100 to 1000 | 100 to 1000 | 10 to 100
CCn1c(-c2cccnc2[C@H](C)OC)c2c3cc(cnc31)-c1csc(n1)C[C@H](NC(=O)[C@H](C(C)C)N(C)C(=O)N1CC(OC)C1)C(=O)N1CCC[C@H](N1)C(=O)OCC(C)(C)C2 [Example A612] | 100 to 1000 | 1000 to 10000 | 100 to 1000 | 100 to 1000 | 100 to 1000 | 100 to 1000 | 1000 to 10000 | 100 to 1000 | 1000 to 10000 | 1000 to 10000 | 1000 to 10000 | 1000 to 10000 | 1000 to 10000 | 100 to 1000

Now from value to molecule, other results behind:

IC50 (NCI-H358 (K-Ras G12C)) [nM] | IC50 (NRAS Q61R) [nM] | IC50 (NRAS WT) [nM] | IC50 (KRAS Q61H) [nM] | IC50 (NRAS Q61K) [nM] | IC50 (KRAS G12C) [nM] | IC50 (KRAS G12D) [nM] | IC50 (NRAS G12C) [nM] | IC50 (KRAS G13D) [nM] | IC50 (KRAS WT) [nM] | IC50 (KRAS G13C) [nM] | IC50 (KRAS G12V) [nM] | IC50 (KRAS G12S) [nM] | SMILES | IC50 (Capan-1 (K-Ras G12V)) [nM]
10 to 100 | 10 to 100 | 10 to 100 | 10 to 100 | 10 to 100 | 10 to 100 | 100 to 1000 | 10 to 100 | 100 to 1000 | 10 to 100 | 100 to 1000 | 100 to 1000 | 10 to 100 | CCn1c(-c2cccnc2[C@H](C)OC)c2c3cc(ccc31)-c1csc(n1)C[C@H](NC(=O)[C@H](C(C)C)N(C)C(=O)N1CCCC1)C(=O)N1CCC[C@H](N1)C(=O)OCC(C)(C)C2 (atropisomer, axis not shown) [Example A400] | 10 to 100
10 to 100 | 100 to 1000 | 100 to 1000 | 10 to 100 | 10 to 100 | 10 to 100 | 1000 to 10000 | 10 to 100 | 100 to 1000 | 100 to 1000 | 100 to 1000 | 100 to 1000 | 100 to 1000 | CCn1c(-c2cccnc2[C@H](C)OC)c2c3cc(ccc31)-c1csc(n1)C[C@H](NC(=O)[C@H](C(C)C)N(C)C(=O)N1CC(N(C)S(C)(=O)=O)C1)C(=O)N1CCC[C@H](N1)C(=O)OCC(C)(C)C2 (atropisomer, axis not shown) [Example A550] | 10 to 100
10 to 100 | 10 to 100 | 100 to 1000 | 10 to 100 | 10 to 100 | 10 to 100 | 100 to 1000 | 10 to 100 | 100 to 1000 | 100 to 1000 | 100 to 1000 | 100 to 1000 | 100 to 1000 | CCn1c(-c2cccnc2[C@H](C)OC)c2c3cc(ccc31)-c1csc(n1)C[C@H](NC(=O)[C@H](C(C)C)N(C)C(=O)N1CCC13CCOCC3)C(=O)N1CCC[C@H](N1)C(=O)OCC(C)(C)C2 (atropisomer, axis not shown) [Example A601] | 10 to 100
